Source: patent US20260355212A1 (priority 2022, published 2026)
Like-named read-outs stand apart in the source and are kept apart here.

Assays:
HCoV-NL63 Mpro = HCoV-NL63 Mpro (Human coronavirus NL63, UniProt P0C6X5); experiment: HCoV-NL63 Mpro enzymatic inhibition assay (fluorescence); assay type: biochemical
Method in brief: (§1)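 Steps: compound dilution series (3-fold, 10 doses) dispensed; Mpro added and pre-incubated 30 min at room temperature; substrate added; plates incubated 60 min at 30 °C; fluorescence measured at Ex/Em=340 nm/490 nm.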

HCoV-229E Mpro = HCoV-229E Mpro (Human coronavirus 229E, UniProt P0C6X1); experiment: HCoV-229E Mpro enzymatic inhibition assay (fluorescence); assay type: biochemical
HCoV-HKU1 Mpro = HCoV-HKU1 Mpro (Human coronavirus HKU1, UniProt P0C6X2); experiment: HCoV-HKU1 Mpro enzymatic inhibition assay (fluorescence); assay type: biochemical
Method in brief: as §1

MERS Mpro = MERS Mpro (Middle East respiratory syndrome-related coronavirus, UniProt K9N7C7); experiment: biochemical; design: species or system MERS-CoV
SARS-CoV-1 Mpro = SARS-CoV-1 Mpro (Severe acute respiratory syndrome coronavirus, UniProt P0C6X7); experiment: biochemical
HCoV-OC43 Mpro = HCoV-OC43 Mpro (Human coronavirus OC43, UniProt P0C6X6); experiment: HCoV-OC43 Mpro enzymatic inhibition assay (fluorescence); assay type: biochemical
Method in brief: as §1

SARS-CoV-2 Mpro = SARS-CoV-2 Mpro (Severe acute respiratory syndrome coronavirus 2, UniProt P0DTD1); experiment: SARS-CoV-2 Mpro enzymatic inhibition assay (fluorescence); assay type: biochemical
Method in brief: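 A fluorescence readout (340 nm excitation, 490 nm emission) was taken after the substrate reaction ran 60 min at 30° C. Before substrate addition, E. coli-expressed protease and compound (3-fold dilutions, 10 doses, duplicates) sat together 30 min at room temperature. Percent inhibition was fitted by variable-slope nonlinear regression to give IC50.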

HCoV-NL63 Mpro, sequence (P0C6X5 2940-3242 limits assumed): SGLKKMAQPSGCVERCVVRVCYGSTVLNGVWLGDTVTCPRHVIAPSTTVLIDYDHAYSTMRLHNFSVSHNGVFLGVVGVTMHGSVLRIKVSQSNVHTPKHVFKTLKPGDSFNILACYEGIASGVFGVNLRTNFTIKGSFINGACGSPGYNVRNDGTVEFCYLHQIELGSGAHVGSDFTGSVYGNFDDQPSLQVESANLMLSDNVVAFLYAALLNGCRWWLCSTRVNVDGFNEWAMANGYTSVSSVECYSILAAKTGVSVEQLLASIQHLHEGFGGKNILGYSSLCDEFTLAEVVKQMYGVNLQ
MERS Mpro, sequence (K9N7C7 3248-3553 limits assumed): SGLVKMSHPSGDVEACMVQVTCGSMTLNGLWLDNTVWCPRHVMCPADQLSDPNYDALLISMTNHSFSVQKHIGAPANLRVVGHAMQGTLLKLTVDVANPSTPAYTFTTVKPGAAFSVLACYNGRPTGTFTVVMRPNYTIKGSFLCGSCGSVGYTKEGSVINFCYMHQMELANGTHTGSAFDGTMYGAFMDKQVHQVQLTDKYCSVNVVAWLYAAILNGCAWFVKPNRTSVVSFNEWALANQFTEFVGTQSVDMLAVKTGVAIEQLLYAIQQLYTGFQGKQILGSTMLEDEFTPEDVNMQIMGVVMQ
HCoV-229E Mpro, sequence (P0C6X1 2966-3267 limits assumed): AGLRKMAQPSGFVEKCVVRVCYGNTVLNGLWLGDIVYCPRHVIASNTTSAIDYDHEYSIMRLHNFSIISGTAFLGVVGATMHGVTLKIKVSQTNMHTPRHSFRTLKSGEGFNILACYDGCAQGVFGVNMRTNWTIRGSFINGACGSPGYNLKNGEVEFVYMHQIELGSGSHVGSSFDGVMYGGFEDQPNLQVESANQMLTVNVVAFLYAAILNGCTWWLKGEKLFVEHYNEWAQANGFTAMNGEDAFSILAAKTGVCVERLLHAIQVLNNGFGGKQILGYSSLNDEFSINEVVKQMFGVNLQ
HCoV-HKU1 Mpro, sequence (P0C6X2 3335-3637 limits assumed): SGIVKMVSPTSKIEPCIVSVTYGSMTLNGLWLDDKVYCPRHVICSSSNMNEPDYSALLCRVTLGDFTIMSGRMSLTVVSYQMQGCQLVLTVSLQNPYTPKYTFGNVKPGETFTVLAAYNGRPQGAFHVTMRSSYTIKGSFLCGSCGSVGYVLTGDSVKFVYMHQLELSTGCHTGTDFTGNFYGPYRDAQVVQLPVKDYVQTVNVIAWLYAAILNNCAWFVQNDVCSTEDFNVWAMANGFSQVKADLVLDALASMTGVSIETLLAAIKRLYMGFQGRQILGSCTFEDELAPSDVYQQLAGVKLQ
HCoV-OC43 Mpro, sequence (P0C6X6 3247-3549 limits assumed): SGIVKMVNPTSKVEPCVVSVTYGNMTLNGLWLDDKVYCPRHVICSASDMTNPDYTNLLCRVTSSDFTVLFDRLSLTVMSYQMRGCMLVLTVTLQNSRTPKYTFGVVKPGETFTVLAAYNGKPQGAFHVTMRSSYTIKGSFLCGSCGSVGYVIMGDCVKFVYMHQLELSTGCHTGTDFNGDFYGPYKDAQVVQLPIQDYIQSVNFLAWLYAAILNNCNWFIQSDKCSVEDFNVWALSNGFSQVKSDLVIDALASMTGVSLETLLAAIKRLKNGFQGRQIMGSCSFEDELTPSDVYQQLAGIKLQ

Compound	IC50 (HCoV-NL63 Mpro) [µM]	IC50 (HCoV-229E Mpro) [µM]	IC50 (HCoV-HKU1 Mpro) [µM]	IC50 (MERS Mpro) [µM]	IC50 (SARS-CoV-1 Mpro) [µM]	IC50 (HCoV-OC43 Mpro) [µM]	IC50 (SARS-CoV-2 Mpro) [µM]	IC50 (SARS-CoV-2 Mpro; mean, 25 nM protein, 25 μM substrate, 30 min pre-incubation, 60 min at 30° C., read-out: Mpro_SARS-CoV-2 mean IC50) [µM]
CC1(C)[C@@H]2[C@@H](C(=O)N[C@H](C#N)C[C@@H]3CCNC3=O)N(C(=O)C3(c4ccccc4)CCCC3)C[C@@H]21 [Compound 136, (1R,2S,5S)—N—((S)-1-Cyano-2-((S)-2-oxopyrrolidin-3-yl)ethyl)-6,6-dimethyl-3-(1-phenylcyclopentanecarbonyl)-3-azabicyclo[3.1.0]hexane-2-carboxamide]	13.9	3.05	1.63	8.41	0.767	3.98	0.47	–
O=C[C@H](C[C@@H]1CCNC1=O)NC(=O)[C@@H]1C[C@@H](Cc2cccc(Cl)c2)CN1C(=O)c1cc2ccccc2[nH]1 [Compound 137, (2S,4R)-4-(3-Chlorobenzyl)-1-(1H-indole-2-carbonyl)-N—((S)-1-oxo-3-((S)-2-oxopyrrolidin-3-yl)propan-2-yl)pyrrolidine-2-carboxamide]	6.56	1.26	0.262	36.3	1.52	1.42	0.478	–
O=C[C@H](C[C@@H]1CCNC1=O)NC(=O)[C@@H]1CCCN1C(=O)c1cc2ccccc2[nH]1 [Compound 138]	0.417	0.208	0.227	1.73	0.691	0.317	–	0.499
